From patent US20260355212A1 (priority 2022, published 2026) come the findings set out here.

For one experiment, the target named is SARS-CoV-1 Mpro (Severe acute respiratory syndrome coronavirus, UniProt P0C6X7). Kind of experiment: biochemical.
In another experiment the target is SARS-CoV-2 Mpro (Severe acute respiratory syndrome coronavirus 2, UniProt P0DTD1). Kind of experiment: SARS-CoV-2 Mpro enzymatic inhibition assay (fluorescence). The format is biochemical. The essentials: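 Recombinant Mpro expressed in E. coli was preincubated 30 min at room temperature with 10-point, 3-fold serially diluted compound in duplicate. Fluorogenic substrate was then added and incubated 60 min at 30° C, and fluorescence read at Ex/Em 340/490 nm. IC50 came from a four-parameter fit of % inhibition.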

In the next experiment the target is HCoV-NL63 Mpro (Human coronavirus NL63, UniProt P0C6X5). The experiment in a line: HCoV-NL63 Mpro enzymatic inhibition assay (fluorescence). The format is biochemical. The essentials: (§1)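 Fluorescence at 340/490 nm after 60 min substrate cleavage at 30 °C is the read-out. Purified E. coli-expressed protease had been pre-incubated 30 min at room temperature with 10-dose, 3-fold compound series in duplicate.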

In another experiment the target is HCoV-HKU1 Mpro (Human coronavirus HKU1, UniProt P0C6X2). Kind of experiment: HCoV-HKU1 Mpro enzymatic inhibition assay (fluorescence). The format is biochemical. The essentials: as §1
A further experiment has as its target HCoV-OC43 Mpro (Human coronavirus OC43, UniProt P0C6X6). Kind of experiment: HCoV-OC43 Mpro enzymatic inhibition assay (fluorescence). The format is biochemical. The essentials:
as §1

The next experiment addresses MERS Mpro (Middle East respiratory syndrome-related coronavirus, UniProt K9N7C7). Kind of experiment: biochemical. Also noted: species or system MERS-CoV.
The next experiment has as its target HCoV-229E Mpro (Human coronavirus 229E, UniProt P0C6X1). Kind of experiment: HCoV-229E Mpro enzymatic inhibition assay (fluorescence). The format is biochemical.

MERS Mpro, sequence (K9N7C7 3248-3553 limits assumed): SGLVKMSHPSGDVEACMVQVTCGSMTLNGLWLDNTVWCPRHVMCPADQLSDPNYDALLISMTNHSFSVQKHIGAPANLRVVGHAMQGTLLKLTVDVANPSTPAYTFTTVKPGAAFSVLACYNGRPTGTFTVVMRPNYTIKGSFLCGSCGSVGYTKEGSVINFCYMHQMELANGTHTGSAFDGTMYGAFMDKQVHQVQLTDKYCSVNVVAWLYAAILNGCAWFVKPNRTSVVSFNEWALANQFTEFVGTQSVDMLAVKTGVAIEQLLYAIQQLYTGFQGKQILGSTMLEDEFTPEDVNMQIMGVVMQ
HCoV-229E Mpro, sequence (P0C6X1 2966-3267 limits assumed): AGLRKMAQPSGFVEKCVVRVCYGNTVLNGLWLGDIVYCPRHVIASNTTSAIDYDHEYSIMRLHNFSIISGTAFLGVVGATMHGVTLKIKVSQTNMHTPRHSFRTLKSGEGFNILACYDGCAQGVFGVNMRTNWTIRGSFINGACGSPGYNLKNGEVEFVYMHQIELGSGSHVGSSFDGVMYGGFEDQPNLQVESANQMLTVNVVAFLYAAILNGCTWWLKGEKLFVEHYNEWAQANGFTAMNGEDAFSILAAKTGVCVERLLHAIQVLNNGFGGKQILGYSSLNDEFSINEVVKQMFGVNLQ
HCoV-NL63 Mpro, sequence (P0C6X5 2940-3242 limits assumed): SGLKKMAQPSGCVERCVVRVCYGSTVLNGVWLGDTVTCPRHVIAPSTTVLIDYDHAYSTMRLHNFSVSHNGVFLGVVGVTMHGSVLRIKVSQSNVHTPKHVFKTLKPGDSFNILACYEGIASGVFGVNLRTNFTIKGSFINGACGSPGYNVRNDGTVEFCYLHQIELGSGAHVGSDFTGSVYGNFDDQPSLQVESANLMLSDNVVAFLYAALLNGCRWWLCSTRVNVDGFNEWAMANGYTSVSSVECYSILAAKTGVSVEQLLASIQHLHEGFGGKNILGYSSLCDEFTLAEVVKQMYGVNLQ
HCoV-HKU1 Mpro, sequence (P0C6X2 3335-3637 limits assumed): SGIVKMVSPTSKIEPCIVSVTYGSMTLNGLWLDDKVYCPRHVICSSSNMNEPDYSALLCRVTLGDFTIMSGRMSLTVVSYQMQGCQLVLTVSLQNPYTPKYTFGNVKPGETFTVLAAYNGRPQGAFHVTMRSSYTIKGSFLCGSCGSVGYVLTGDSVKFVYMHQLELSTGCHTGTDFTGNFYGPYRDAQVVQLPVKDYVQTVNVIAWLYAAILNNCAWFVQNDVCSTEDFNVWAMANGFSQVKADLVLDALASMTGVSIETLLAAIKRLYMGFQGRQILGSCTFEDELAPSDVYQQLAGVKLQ
HCoV-OC43 Mpro, sequence (P0C6X6 3247-3549 limits assumed): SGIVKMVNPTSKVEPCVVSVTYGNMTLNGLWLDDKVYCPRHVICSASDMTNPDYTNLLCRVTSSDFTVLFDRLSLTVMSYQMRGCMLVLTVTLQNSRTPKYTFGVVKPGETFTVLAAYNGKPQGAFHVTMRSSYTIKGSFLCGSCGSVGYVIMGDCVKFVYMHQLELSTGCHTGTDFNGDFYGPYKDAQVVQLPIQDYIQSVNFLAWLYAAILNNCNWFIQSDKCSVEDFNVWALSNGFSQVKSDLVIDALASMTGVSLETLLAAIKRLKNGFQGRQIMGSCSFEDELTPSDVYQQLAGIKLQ

The term IC50 denotes the concentration that gives 50% inhibition. Read a high IC50 as a need for much substance. `O=C1NCC[C@H]1C[C@H](NC(=O)[C@@H]1CC2(CC2)CN1C(=O)c1cc2ccccc2[nH]1)C(=O)c1nc2ccccc2s1` [Compound 127, (S)—N—((S)-1-(benzo[d]thiazol-2-yl)-1-oxo-3-((S)-2-oxopyrrolidin-3-yl)propan-2-yl)-5-(1H-indole-2-carbonyl)-5-azaspiro[2.4]heptane-6-carboxamide]: the IC50 turned out to be 600 nM against SARS-CoV-1 Mpro; 261 nM against SARS-CoV-2 Mpro; 195 nM against HCoV-NL63 Mpro; 372 nM against HCoV-HKU1 Mpro; 507 nM against HCoV-OC43 Mpro; 409 nM on MERS Mpro. Moreover, the 50% inhibitory concentration (IC50) at HCoV-229E Mpro came to 95.1 nM.
As for `CC1(C)[C@@H]2[C@@H](C(=O)N[C@H](C=O)C[C@@H]3CCNC3=O)N(C(=O)c3cc4occc4[nH]3)C[C@@H]21` [Compound 78, (1R,2S,5S)-3-(4H-Furo[3,2-b]pyrrole-5-carbonyl)-6,6-dimethyl-N—((S)-1-oxo-3-((S)-2-oxopyrrolidin-3-yl)propan-2-yl)-3-azabicyclo[3.1.0]hexane-2-carboxamide], the IC50 was 86.8 nM against SARS-CoV-1 Mpro; 33.3 nM against SARS-CoV-2 Mpro; 81.3 nM on HCoV-NL63 Mpro; 51.1 nM on HCoV-HKU1 Mpro; 66.9 nM on HCoV-OC43 Mpro; 479 nM at MERS Mpro. 37.4 nM corresponded to half-maximal inhibition against HCoV-229E Mpro (IC50).
As to `CC1(C)[C@@H]2[C@@H](C(=O)N[C@H](C=O)C[C@@H]3CCNC3=O)N(C(=O)c3cc4c(Cl)cccc4[nH]3)C[C@@H]21` [Compound 43, (1R,2S,5S)-3-(4-Chloro-1H-indole-2-carbonyl)-6,6-dimethyl-N—((S)-1-oxo-3-((S)-2-oxopyrrolidin-3-yl)propan-2-yl)-3-azabicyclo[3.1.0]hexane-2-carboxamide], the IC50 against SARS-CoV-1 Mpro was found to be 25.8 nM; at SARS-CoV-2 Mpro, 22.1 nM; on HCoV-NL63 Mpro, 47.5 nM; on HCoV-HKU1 Mpro, 18 nM; at HCoV-OC43 Mpro, 45.4 nM; at MERS Mpro, 236 nM. This molecule also registered an IC50 against HCoV-229E Mpro of 39.3 nM.
For the molecule `Cc1cccc2cc(C(=O)N3C[C@H]4[C@@H]([C@H]3C(=O)N[C@H](C=O)C[C@@H]3CCNC3=O)C4(C)C)[nH]c12` [Compound 33, (1R,2S,5S)-6,6-Dimethyl-3-(7-methyl-1H-indole-2-carbonyl)-N—((S)-1-oxo-3-((S)-2-oxopyrrolidin-3-yl)propan-2-yl)-3-azabicyclo[3.1.0]hexane-2-carboxamide], the concentration for half-maximal inhibition (IC50) was determined as 34 nM against SARS-CoV-1 Mpro; 19.7 nM against SARS-CoV-2 Mpro; 78 nM against HCoV-NL63 Mpro; 37.9 nM against HCoV-HKU1 Mpro; 83.2 nM on HCoV-OC43 Mpro; 227 nM against MERS Mpro. Moreover, half-maximal inhibition against HCoV-229E Mpro (IC50) was put at 43.5 nM.
As for `CC1(C)[C@@H]2[C@@H](C(=O)N[C@H](C=O)C[C@@H]3CCNC3=O)N(C(=O)c3cc4cc(F)ccc4[nH]3)C[C@@H]21` [Compound 24, (1R,2S,5S)-3-(5-fluoro-1H-indole-2-carbonyl)-N-[(1S)-1-formyl-2-[(3S)-2-oxopyrrolidin-3-yl]ethyl]-6,6-dimethyl-3-azabicyclo[3.1.0]hexane-2-carboxamide], the IC50 was 73.6 nM against SARS-CoV-1 Mpro; 16.6 nM at SARS-CoV-2 Mpro; 71.7 nM against HCoV-NL63 Mpro; 31.8 nM on HCoV-HKU1 Mpro; 60.5 nM on HCoV-OC43 Mpro; 271 nM on MERS Mpro. Moreover, the IC50 on HCoV-229E Mpro amounted to 32.3 nM.
Turning to `C=C1C[C@@H](C(=O)N[C@H](C=O)C[C@@H]2CCNC2=O)N(C(=O)c2cc3ccccc3[nH]2)C1` [Compound 108, (S)-1-(1H-Indole-2-carbonyl)-4-methylene-N—((S)-1-oxo-3-((S)-2-oxopyrrolidin-3-yl)propan-2-yl)pyrrolidine-2-carboxamide], the concentration for half-maximal inhibition (IC50) came out at 159 nM at SARS-CoV-1 Mpro; 78.5 nM at SARS-CoV-2 Mpro; 38 nM against HCoV-NL63 Mpro; 29 nM on HCoV-HKU1 Mpro; 193 nM on HCoV-OC43 Mpro; 291 nM against MERS Mpro. On HCoV-229E Mpro, this molecule showed an IC50 of 48 nM.
As for `O=C[C@H](C[C@@H]1CCNC1=O)NC(=O)[C@@H]1C[C@@H](F)CN1C(=O)c1cc2ccccc2[nH]1` [Compound 98, (2S,4R)-4-fluoro-1-(1H-Indole-2-carbonyl)-N—((S)-1-oxo-3-((S)-2-oxopyrrolidin-3-yl)propan-2-yl)pyrrolidine-2-carboxamide], the half-inhibitory concentration (IC50) on SARS-CoV-1 Mpro is 206 nM; on SARS-CoV-2 Mpro, 51.1 nM; against HCoV-NL63 Mpro, 105 nM; on HCoV-HKU1 Mpro, 7 nM; on HCoV-OC43 Mpro it was 81 nM; against MERS Mpro, 518 nM. Further, the IC50 against HCoV-229E Mpro stood at 57 nM.
For the molecule `O=C[C@H](C[C@@H]1CCNC1=O)NC(=O)[C@@H]1C[C@@H](C2CCCCC2)CN1C(=O)c1cc2cccc(Cl)c2[nH]1` [Compound 81, (2S,4S)-1-(7-chloro-1H-indole-2-carbonyl)-4-cyclohexyl-N—((S)-1-oxo-3-((S)-2-oxopyrrolidin-3-yl)propan-2-yl)pyrrolidine-2-carboxamide], the IC50 is 125 nM against SARS-CoV-1 Mpro; 35.3 nM at SARS-CoV-2 Mpro; 1050 nM at HCoV-NL63 Mpro; 37 nM against HCoV-HKU1 Mpro; 173 nM against HCoV-OC43 Mpro; 2980 nM against MERS Mpro. Moreover, at HCoV-229E Mpro, the IC50 was 78.2 nM.
As for `CC1(C)[C@@H]2[C@@H](C(=O)N[C@H](C=O)C[C@@H]3CCNC3=O)N(C(=O)c3cc4cc(Cl)ccc4[nH]3)C[C@@H]21` [Compound 89, (1R,2S,5S)-3-(5-Chloro-1H-indole-2-carbonyl)-6,6-dimethyl-N—((S)-1-oxo-3-((S)-2-oxopyrrolidin-3-yl)propan-2-yl)-3-azabicyclo[3.1.0]hexane-2-carboxamide], the IC50 against SARS-CoV-1 Mpro was 65.4 nM; at SARS-CoV-2 Mpro, 40.9 nM; against HCoV-NL63 Mpro, 69.5 nM; against HCoV-HKU1 Mpro, 31 nM; against HCoV-OC43 Mpro, 88.5 nM; at MERS Mpro, 395 nM. Moreover, on HCoV-229E Mpro, it took 44.7 nM to reach half-maximal inhibition (IC50).
Regarding `Cn1c(C(=O)N2C[C@H]3[C@@H]([C@H]2C(=O)N[C@H](C=O)C[C@@H]2CCNC2=O)C3(C)C)cc2cc(Cl)ccc21` [Compound 90, (1R,2S,5S)-3-(5-Chloro-1-methyl-1H-indole-2-carbonyl)-6,6-dimethyl-N—((S)-1-oxo-3-((S)-2-oxopyrrolidin-3-yl)propan-2-yl)-3-azabicyclo[3.1.0]hexane-2-carboxamide], the 50% inhibitory concentration (IC50) was 79.4 nM against SARS-CoV-1 Mpro; 43.6 nM at SARS-CoV-2 Mpro; 202 nM against HCoV-NL63 Mpro; 48 nM against HCoV-HKU1 Mpro; 130 nM at HCoV-OC43 Mpro; 655 nM against MERS Mpro. Moreover, it took 60.5 nM to reach half-maximal inhibition against HCoV-229E Mpro (IC50).
Take `C[C@@H](C(=O)N1C[C@H]2[C@@H]([C@H]1C(=O)N[C@H](C=O)C[C@@H]1CCNC1=O)C2(C)C)c1ccccc1` [Compound 37, (1R,2S,5S)-6,6-dimethyl-N—((S)-1-oxo-3-((S)-2-oxopyrrolidin-3-yl)propan-2-yl)-3-((R)-2-phenylpropanoyl)-3-azabicyclo[3.1.0]hexane-2-carboxamide]: the 50% inhibitory concentration (IC50) stood at 40.4 nM at SARS-CoV-1 Mpro; 20.6 nM at SARS-CoV-2 Mpro; 188 nM at HCoV-NL63 Mpro; 36.4 nM on HCoV-HKU1 Mpro; 36.7 nM against HCoV-OC43 Mpro; 242 nM at MERS Mpro. Besides, at HCoV-229E Mpro, the 50% inhibitory concentration (IC50) is 45.6 nM.
Take `CC1(C)[C@@H]2[C@@H](C(=O)N[C@H](C#N)C[C@@H]3CCNC3=O)N(C(=O)C3(c4ccccc4)CCCC3)C[C@@H]21` [Compound 136, (1R,2S,5S)—N—((S)-1-Cyano-2-((S)-2-oxopyrrolidin-3-yl)ethyl)-6,6-dimethyl-3-(1-phenylcyclopentanecarbonyl)-3-azabicyclo[3.1.0]hexane-2-carboxamide]: the IC50 was found to be 767 nM against SARS-CoV-1 Mpro; 470 nM on SARS-CoV-2 Mpro; 13900 nM on HCoV-NL63 Mpro; 1630 nM at HCoV-HKU1 Mpro; 3980 nM at HCoV-OC43 Mpro; 8410 nM on MERS Mpro. At HCoV-229E Mpro, this molecule had an IC50 of 3050 nM.
Take `COc1ccc2cc(C(=O)N3C[C@H]4[C@@H]([C@H]3C(=O)N[C@H](C=O)C[C@@H]3CCNC3=O)C4(C)C)[nH]c2c1` [Compound 56, (1R,2S,5S)-3-(6-Methoxy-1H-indole-2-carbonyl)-6,6-dimethyl-N—((S)-1-oxo-3-((S)-2-oxopyrrolidin-3-yl)propan-2-yl)-3-azabicyclo[3.1.0]hexane-2-carboxamide]: the IC50 against SARS-CoV-1 Mpro came to 64.7 nM; against SARS-CoV-2 Mpro, 25.7 nM; at HCoV-NL63 Mpro, 59.9 nM; against HCoV-HKU1 Mpro, 12.8 nM; on HCoV-OC43 Mpro, 59.8 nM; against MERS Mpro, 291 nM. The same molecule showed an IC50 on HCoV-229E Mpro of 42.6 nM.
Take `CC1CCC(CC(=O)N2C[C@H]3[C@@H]([C@H]2C(=O)N[C@H](C=O)C[C@@H]2CCNC2=O)C3(C)C)CC1` (stereo partly drawn) [Compound 52, (1R,2S,5S)-6,6-dimethyl-3-(2-(4-methylcyclohexyl)acetyl)-N—((S)-1-oxo-3-((S)-2-oxopyrrolidin-3-yl)propan-2-yl)-3-azabicyclo[3.1.0]hexane-2-carboxamide]: the IC50 on SARS-CoV-1 Mpro was determined as 32.6 nM; against SARS-CoV-2 Mpro it was 24.6 nM; against HCoV-NL63 Mpro it was 61.3 nM; on HCoV-HKU1 Mpro, 25 nM; at HCoV-OC43 Mpro, 52 nM; against MERS Mpro, 214 nM. This molecule also came in with an IC50 against HCoV-229E Mpro of 31.4 nM.
